The text below walks through data of patent publication US9999620B2, “CaMKK-β as a target for treating cancer” (Duke University, priority 2010, dated 2018).

Type in all cases: cell-based, human
Experiment [1] deals with LNCaP cells. Nature of the experiment: Boyden dual chamber migration assay. The following applies: 1 h +/-30 mM STO-609, overnight +/-10 nM R1881, 16 h migration, 5% FBS chemoattractant. As to the method:
FIG. 7. CaMKKβ activity in the androgen-mediated migration and invasion of prostate cancer cells. A, LNCaP cells were plated in 96-well plates and grown for 3 d. […] On d 10, cells were lysed and the relative number of cells was measured with the fluorescent DNA binding dye FluoReporter Blue. Each sample was performed in triplicate, and results from a representative experiment are shown. […] Cells were then dissociated and reseeded into the top chamber for a Boyden migration or Matrigel extracellular matrix invasion assay. Fresh medium with the corresponding treatments was added to the top and bottom chambers while either no chemoattractant or 5% FBS (serum) was added to the bottom chamber. After 16 h, migrated cells were fixed, stained and counted in three different microscopic fields and added together. […] C top, LNCaP cells were transfected with indicated siRNAs. […] D right, LNCaP cells stably expressing either GAL4 (control) or CaMKKβ were subjected to a migration assay as described in B using +/-5% FBS as chemoattractant. The results are expressed as mean+SE (n=3). *, significant changes from LNCaP-GAL4 cells. D left, western blot confirming CaMKKβ […]expression. FIG. 11. Androgen-mediated migration occurs through a CaMKKβ-AMPK-dependent pathway. […] Results are expressed as fold induction/phosphorylation over double vehicle-treated cells+SE (n=3). *, significant changes from vehicle-treated cells. […] Results are expressed as fold induction/phosphorylation over LNCaP-GAL4 vehicle-treated cells+SE (n=3). *, significant changes from LNCaP-GAL4 vehicle-treated cells. […] The results are expressed as mean±SE (n=2). *, P<0.05 indicates significant changes from double vehicle-treated cells. ^#, P<0.05 indicates significant decreases from vehicle (no compound C)-treated cells. […] ACC is a direct target of AMPK and thus, was used as a readout of AMPK catalytic activity. […] Results are expressed as fold induction/phosphorylation over double vehicle-treated cells+SE (n=2). *, P<0.05 indicates significant changes from double vehicle-treated cells. […]

For another experiment, the system named is VCaP cells. Put plainly: Boyden dual chamber migration assay. To be noted: 1 h +/-30 mM STO-609, overnight +/-10 nM R1881, 16 h migration, 5% FBS chemoattractant. The text has this: FIG. 6. CaMKKβ activity in androgen-mediated cell migration in prostate cancer cells. […] Cell lysates were then subjected to western blot analysis and subsequent densitometry (right). Phospho-[…]) levels were normalized to total CaMKI. Results are expressed as fold induction/phosphorylation over double vehicle-treated cells+SE (n=2). *, P<0.05 indicates significant changes from vehicle-treated cells. ^#, P<0.05 indicates significant changes from vehicle (no STO-609)-treated cells. B, VCaP cells were plated in 96-well plates and grown for 3 d. […] On d 10, cells were lysed and the relative number of cells was measured with the fluorescent DNA binding dye FluoReporter Blue. Each sample was performed in triplicate, and results from a representative experiment are shown. […] Cells were then dissociated and reseeded into the top chamber for a Boyden dual chamber migration assay. Fresh medium with the corresponding treatments was added to the top and bottom chambers while either no chemoattractant or 5% FBS (serum) was added to the bottom chamber. After 16 h, migrated cells were fixed, stained with crystal violet and counted in three different microscopic fields and added together. […]

Experiment [2] deals with LNCaP cells. Nature of the experiment: Matrigel extracellular matrix invasion assay. To be noted: 1 h +/-30 mM STO-609, overnight +/-10 nM R1881. As to the method: FIG. 7. CaMKKβ activity in the androgen-mediated migration and invasion of prostate cancer cells. A, LNCaP cells were plated in 96-well plates and grown for 3 d. […] On d 10, cells were lysed and the relative number of cells was measured with the fluorescent DNA binding dye FluoReporter Blue. Each sample was performed in triplicate, and results from a representative experiment are shown. […] Cells were then dissociated and reseeded into the top chamber for a Boyden migration or Matrigel extracellular matrix invasion assay. Fresh medium with the corresponding treatments was added to the top and bottom chambers while either no chemoattractant or 5% FBS (serum) was added to the bottom chamber. After 16 h, migrated cells were fixed, stained and counted in three different microscopic fields and added together. […] C top, LNCaP cells were transfected with indicated siRNAs. […] D right, LNCaP cells stably expressing either GAL4 (control) or CaMKKβ were subjected to a migration assay as described in B using +/−5% FBS as chemoattractant. The results are expressed as mean+SE (n=3). *, significant changes from LNCaP-GAL4 cells. D left, western blot confirming CaMKKβ […]expression. Migration and invasion assays. Boyden dual chamber migration assays were performed as previously described (4). […]

Molecules are shown by their SMILES.

As to `O=C(O)c1ccc2c3c1cccc3c(=O)n1c3ccccc3nc21` [STO-609], the androgen-mediated migration result with LNCaP cells [1] and with VCaP cells was “blocked the androgen-mediated migration” in each case. Moreover, the “androgen-mediated invasion through Matrigel extracellular matrix” value in the experiment with LNCaP cells [2] is “inhibited androgen-mediated invasion”.
